Laboratory results reported in publication PMC9809337, “Discovery of HCD3514 as a potent EGFR inhibitor against C797S mutation in vitro and in vivo” (Journal of Cancer, 2023).
Where two headings read alike, the source gives them in different places.

What was measured:
[1] = tested on: BaF3-EGFR^L858R/T790M/C797S cells; assay: Cell proliferation assay (CCK8/SRB); conditions: Ba/F3 EGFR-L858R, 72 h, read-out: IC50, antiproliferation activity
[2] = tested on: EGFR phosphorylation in triple mutant BaF3 cells and PC-9-OR cells; assay: Western blot of EGFR phosphorylation in EGFR^C797S triple mutant cells; type: cell-based; conditions: treated 2 h
[3] = tested on: BaF3-EGFR^19del/T790M cells; assay: Cell proliferation assay (CCK8/SRB); conditions: 72 h, read-out: IC50, antiproliferation activity
BaF3 parental cells = assay: Cell proliferation assay (CCK8/SRB); conditions: Mus musculus, BaF3, 72 h, read-out: IC50, antiproliferation activity
NCI-H1975 cells = assay: Cell proliferation assay (CCK8/SRB); conditions: Homo sapiens, NCI-H1975, 72 h, read-out: IC50, antiproliferation activity
[4] = tested on: BaF3-EGFR^19del/T790M/C797S cells; assay: Cell proliferation assay (CCK8/SRB); conditions: 72 h, read-out: IC50, antiproliferation activity
PC-9-OR cells [5] = assay: Cell proliferation assay (CCK8/SRB); conditions: PC9-OR, 72 h, read-out: IC50, antiproliferation activity
[6] = tested on: BaF3-EGFR^19del/T790M/C797S mouse xenograft tumors; type: in vivo; conditions: for phosphorylation of EGFR and Erk in tumors (Western blot): tumor tissues collected 2 h after last treatment
Description: Western blotting was performed as described previously. Cells were collected by trypsin and then lysed with SDS lysis buffer. Tumor tissues were homogenized in RIPA buffer on ice, followed by centrifugation at 12,000 x g for 30 min.
Mice were sacrificed and tumors were harvested for Western blot analysis. All animal study was approved by the Institutional Animal Care and Use Committee of the Shanghai Institute of Materia Medica and strictly performed according to the institutional ethical guidelines on animal care.

[7] = tested on: BaF3-EGFR^L858R/T790M cells; assay: Cell proliferation assay (CCK8/SRB); conditions: Ba/F3 EGFR-L858R, 72 h, read-out: IC50, antiproliferation activity
[8] = tested on: EGFR phosphorylation in BaF3-EGFR^L858R/T790M, BaF3-EGFR^19del/T790M and NCI-H1975 cells; assay: Western blot of EGFR phosphorylation in EGFR^T790M double mutant cells; type: cell-based; conditions: treated 2 h
Description: (§1) Western blotting was performed as described previously. Cells were collected by trypsin and then lysed with SDS lysis buffer. Tumor tissues were homogenized in RIPA buffer on ice, followed by centrifugation at 12,000 x g for 30 min. The concentration of protein was measured with BCA protein assay kit (cat. no. 23227, Thermo Fisher Scientific). After heating at 100 °C for 15 min, protein samples were separated on 8-12% SDS-PAGE gels, and then transferred to nitrocellulose membranes (Life Technologies). Membranes were blocked in 5% nonfat milk-TBST and immunoblotted with primary antibodies against phospho-EGFR (Tyr1068; dilution, 1:500; cat. no. 2234L, CST), EGFR (dilution, 1:1000; cat. no. 4267S, CST), PARP (dilution, 1:1000; cat. no. 9542S, CST), caspase-3 (dilution, 1:1000; cat. no. 9662S, CST), cleaved caspase-3 (dilution, 1:1000; cat. no. 9664S, CST), phospho-Erk (Thr202/Tyr204; dilution, 1:1000; cat. no. 4370S, CST), Erk (dilution, 1:1000; cat. no. 4695S, CST) and β-actin (dilution, 1:20000; cat. no. 60008-1-Ig, Proteintech) at 4 °C overnight and then incubated with secondary antibodies (cat. no. 111-035-003, Jackson).

EGFR^WT [9] = target: EGFR^WT (Homo sapiens, UniProt P00533); assay: In vitro kinase assay (ELISA)
EGFR^WT (Homo sapiens, UniProt P00533), sequence (P00533 712-979 limits assumed): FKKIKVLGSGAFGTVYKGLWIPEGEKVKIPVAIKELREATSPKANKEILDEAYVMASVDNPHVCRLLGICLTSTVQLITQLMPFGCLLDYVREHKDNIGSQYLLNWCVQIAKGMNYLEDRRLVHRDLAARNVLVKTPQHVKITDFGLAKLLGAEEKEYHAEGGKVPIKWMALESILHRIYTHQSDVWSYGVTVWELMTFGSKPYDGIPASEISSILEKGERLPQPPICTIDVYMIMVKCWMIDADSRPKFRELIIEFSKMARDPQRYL

EGFR^WT [10] = assay: In vitro kinase assay (ELISA); conditions: EGFR^C797S triple mutants versus EGFR^WT, kinase IC50
MRC-9 cells = assay: Cell proliferation assay (CCK8/SRB); conditions: Homo sapiens, MRC9, 72 h, read-out: IC50, antiproliferative activity
EGFR^L858R/T790M/C797S = EGFR^L858R/T790M/C797S (Homo sapiens, UniProt P00533, C797S/L858R/T790M); assay: In vitro kinase assay (ELISA); type: biochemical; conditions: mean ± SD of three independent experiments, read-out: IC50, kinase inhibitory activity against EGFR^L858R/T790M/C797S
EGFR^L858R/T790M/C797S, sequence (P00533 712-979 T790M/C797S/L858R limits assumed): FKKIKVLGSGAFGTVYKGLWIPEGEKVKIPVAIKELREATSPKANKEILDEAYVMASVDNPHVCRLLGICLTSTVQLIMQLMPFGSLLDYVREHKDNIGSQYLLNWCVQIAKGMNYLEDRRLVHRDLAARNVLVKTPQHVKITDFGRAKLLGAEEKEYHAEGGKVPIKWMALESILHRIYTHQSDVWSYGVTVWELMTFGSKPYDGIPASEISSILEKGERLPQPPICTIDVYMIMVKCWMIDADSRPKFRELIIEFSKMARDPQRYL

EGFR^L858R/T790M = EGFR^L858R/T790M (Homo sapiens, UniProt P00533, L858R/T790M); assay: In vitro kinase assay (ELISA); type: biochemical; conditions: mean ± SD of three independent experiments, read-out: IC50, kinase inhibitory activity against EGFR^L858R/T790M
EGFR^L858R/T790M, sequence (P00533 712-979 T790M/L858R limits assumed): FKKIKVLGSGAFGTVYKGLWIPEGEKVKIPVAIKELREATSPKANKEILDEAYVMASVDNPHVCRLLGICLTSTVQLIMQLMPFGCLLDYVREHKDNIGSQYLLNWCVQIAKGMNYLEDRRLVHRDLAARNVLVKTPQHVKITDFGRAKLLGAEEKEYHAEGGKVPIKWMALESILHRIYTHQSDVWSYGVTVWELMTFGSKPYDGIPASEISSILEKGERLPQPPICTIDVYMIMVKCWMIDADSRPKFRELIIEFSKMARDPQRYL

EGFR^19del/T790M = EGFR^19del/T790M (Homo sapiens, UniProt P00533, DEL746-750/T790M); assay: In vitro kinase assay (ELISA); type: biochemical; conditions: mean ± SD of three independent experiments, read-out: IC50, kinase inhibitory activity against EGFR^19del/T790M
EGFR^19del/T790M, sequence (P00533 with tags, fused parts or gaps DEL746-750/T790M limits assumed): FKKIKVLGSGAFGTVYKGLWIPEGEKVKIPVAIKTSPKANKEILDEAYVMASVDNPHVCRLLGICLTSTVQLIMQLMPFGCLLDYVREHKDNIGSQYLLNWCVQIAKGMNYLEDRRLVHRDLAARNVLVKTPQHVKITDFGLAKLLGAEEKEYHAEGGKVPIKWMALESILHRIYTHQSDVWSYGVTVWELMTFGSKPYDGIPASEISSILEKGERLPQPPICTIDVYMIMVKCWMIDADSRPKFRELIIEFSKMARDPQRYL

EGFR^19del/T790M/C797S = EGFR^19del/T790M/C797S (Homo sapiens, UniProt P00533, C797S/DEL746-750/T790M); assay: In vitro kinase assay (ELISA); type: biochemical; conditions: mean ± SD of three independent experiments, read-out: IC50, kinase inhibitory activity against EGFR^19del/T790M/C797S
EGFR^19del/T790M/C797S, sequence (P00533 with tags, fused parts or gaps DEL746-750/T790M/C797S limits assumed): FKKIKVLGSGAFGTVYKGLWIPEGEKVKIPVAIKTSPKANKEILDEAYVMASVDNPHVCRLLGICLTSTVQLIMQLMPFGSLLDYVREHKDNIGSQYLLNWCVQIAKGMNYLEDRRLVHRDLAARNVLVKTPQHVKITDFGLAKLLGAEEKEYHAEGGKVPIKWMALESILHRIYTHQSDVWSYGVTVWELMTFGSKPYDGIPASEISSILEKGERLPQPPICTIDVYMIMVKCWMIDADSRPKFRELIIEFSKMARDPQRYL

GSE-1 cells = assay: Cell proliferation assay (CCK8/SRB); conditions: Homo sapiens, 72 h, read-out: IC50, antiproliferative activity
[11] = tested on: cleaved caspase-3 and cleaved PARP in triple mutant BaF3 and PC-9-OR cells; assay: Western blot of apoptosis-related proteins; type: cell-based
Description: as §1

[12] = tested on: BaF3-EGFR^L858R/T790M/C797S cells; assay: Cell apoptosis analysis (Annexin V-FITC, flow cytometry); type: cell-based; conditions: 48 h
Description: (§2) Then cells were collected and washed with PBS and measured by Annexin V-FITC Apoptosis detection kit (cat. no. A211-02, Vazyme Biotechnology). Signals were measured using FACS Calibur flow cytometer, and FlowJo software was used to analyze the data.

[13] = tested on: BaF3-EGFR^19del/T790M/C797S cells; assay: as above; type: cell-based; conditions: 3 μM, 48 h
Description: as §2

PC-9-OR cells [14] = assay: as above; type: cell-based; conditions: 3 μM, 48 h
Description: as §2

[15] = triple mutant BaF3 cells and PC-9-OR cells

Compound | IC50 [1] | IC50 [3] | IC50 (BaF3 parental cells) | IC50 (NCI-H1975 cells) | IC50 [4] | IC50 (PC-9-OR cells [5]) | phosphorylation of EGFR and Erk in tumors (Western blot) [6] | IC50 [7] | EGFR phosphorylation (Western blot) [2, 15] | apoptosis rate ([12]; 3 μM) | also measured
C=CC(=O)Nc1cc(Nc2nccc(-c3cn(C)c4ccccc34)n2)c(OC)cc1N(C)CCN(C)C [AZD9291, Osimertinib, reference compound] | 5500 ± 330 nM | […] | 3520 ± 920 nM | […] | 5930 ± 780 nM | 6300 nM | no obvious inhibitory activities of EGFR and Erk | […] | – | – | EGFR phosphorylation (Western blot) ([2]; 1 μM, all three EGFR^C797S triple mutant cells): failed to suppress; reduction of tumor growth compared to vehicle ([6]; 25 mg/kg, oral, once a day, BALB/c nude mice): did not show significant reduction of tumor growth
CCS(=O)(=O)n1cc(-c2nc(Nc3ccc(N4CCC(N5CCN(C)CC5)CC4)c(OC(C)C)c3)ncc2Cl)c2ccccc21 [HCD3514] | 350 nM | 520 nM | 1310 nM | 490 nM | 250 nM | 480 nM | decreased phosphorylation of EGFR and the downstream signaling phosphorylation of Erk level | 660 nM | potently and dose-dependently suppressed | 98.27% | EGFR phosphorylation (Western blot) ([8]; BaF3-EGFR^L858R/T790M and BaF3-EGFR^19del/T790M cells): dose-dependently suppressed; expression of phospho-EGFR (Western blot) ([8]; NCI-H1975 cells): down-regulated; IC50 (EGFR^WT [9]): 156 ± 6.9 nM; selectivity over EGFR^WT (EGFR^WT [10]): more than 78 fold; IC50 (MRC-9 cells): 1030 nM; tumor growth inhibition (TGI) ([6]; 50 mg/kg, oral, once a day, BALB/c nude mice): 22.53%; tumor growth inhibition (TGI) ([6]; 75 mg/kg, oral, once a day, BALB/c nude mice): 37.73%; tolerability, body weight throughout the study ([6]; 50 and 75 mg/kg, oral, once a day, BALB/c nude mice): well-tolerated, with body weight maintained throughout the study; tumor weight ([6]; 50 and 75 mg/kg, tumors harvested 2 h after last oral administration): reduced with the increased concentration; IC50 (EGFR^L858R/T790M/C797S): 1 nM; IC50 (EGFR^L858R/T790M): 4.9 nM; IC50 (EGFR^19del/T790M): 8.9 nM; IC50 (EGFR^19del/T790M/C797S): 2 nM; IC50 (GSE-1 cells): 1040 nM; expression of cleaved caspase-3 and cleaved PARP (Western blot) [11]: dose-dependently up-regulated; apoptosis rate ([12]; 1 μM): 72.39%
COc1cc(N2CCC(N3CCN(C)CC3)CC2)ccc1Nc1ncc(Cl)c(Nc2ccccc2P(C)(C)=O)n1 [brigatinib] | 610 ± 210 nM | – | 4720 ± 2150 nM | – | 310 ± 90 nM | 400 nM | – | – | significantly reduced | around 80% | apoptosis rate [13]: around 80%; apoptosis rate (PC-9-OR cells [14]): around 80%
